Data on three compounds can be found in ChEMBL document CHEMBL5030507, “Structure-Based Design of a Selective Class I Histone Deacetylase (HDAC) Near-Infrared (NIR) Probe for Epigenetic Regulation Detection in Triple-Negative Breast Cancer (TNBC)” (J Med Chem, 2021).

As a reminder, the IC50 is the concentration that gives 50% inhibition. As usually defined, the GI50 is the concentration that inhibits growth by half.

A short description of data set [1]: Drug uptake in tumor of athymic nude mouse xenografted with human MDA-MB-231 cells at 3 nmol, iv pretreated with SAHA for 3 days followed by compound addition and measured up to 48 hrs by epifluorescence analysis. The note with it: in vivo. The format is ADME, organism-based, Neoplasm.
Data set [2] can be described thus: Drug uptake in tumor of athymic nude mouse xenografted with human MDA-MB-231 cells at 3 nmol, iv pretreated with (12Z,7S,10S)-7- (4-Aminobutyl)-4-ethylidene-10-((E)-4-(heptyldisulfaneyl)but-1-en-1-yl)-9-oxa-3,6,13-triaza-1(4,2)-thiazolacyclotetradecaphane-2,5,8,12-tetraone followed by compound addition and measured up to 48 hrs by epifluorescence analysis. It is filed as ADME, organism-based, Neoplasm. The following applies: in vivo.

The nature of data set [3]: Biodistribution in tumor of athymic nude mouse xenografted with human MDA-MB-231 cells assessed as fluorescence intensity at 3 nmol, iv pretreated with SAHA for 3 days followed by compound addition and measured up to 48 hrs by epifluorescence analysis. The format is ADME, organism-based, Neoplasm. The following applies: in vivo.
Data set [4] can be described thus: Drug uptake in tumor of athymic nude mouse xenografted with human MDA-MB-231 cells assessed as reduction in tumor to normal tissue ratio at 3 nmol, iv in presence of (12Z,7S,10S)-7- (4-Aminobutyl)-4-ethylidene-10-((E)-4-(heptyldisulfaneyl)but-1-en-1-yl)-9-oxa-3,6,13-triaza-1(4,2)-thiazolacyclotetradecaphane-2,5,8,12-tetraone measured up to 48 hrs by epifluorescence analysis relative to control. It is filed as ADME, organism-based, Neoplasm. The following applies: in vivo. (Xenograft models place foreign cells or tissue in a host animal.)

A short description of data set [5]: Biodistribution in tumor of athymic nude mouse xenografted with human MDA-MB-231 cells assessed as fluorescence intensity at 3 nmol, iv measured 48 hrs post infection by epifluorescence analysis. The following applies: in vivo. It is filed as ADME, organism-based, Neoplasm.
Data set [6] concerns the target T1, Protein deacetylase HDAC6 (Homo sapiens, UniProt Q9UBN7).
T1 sequence (Q9UBN7 whole entry): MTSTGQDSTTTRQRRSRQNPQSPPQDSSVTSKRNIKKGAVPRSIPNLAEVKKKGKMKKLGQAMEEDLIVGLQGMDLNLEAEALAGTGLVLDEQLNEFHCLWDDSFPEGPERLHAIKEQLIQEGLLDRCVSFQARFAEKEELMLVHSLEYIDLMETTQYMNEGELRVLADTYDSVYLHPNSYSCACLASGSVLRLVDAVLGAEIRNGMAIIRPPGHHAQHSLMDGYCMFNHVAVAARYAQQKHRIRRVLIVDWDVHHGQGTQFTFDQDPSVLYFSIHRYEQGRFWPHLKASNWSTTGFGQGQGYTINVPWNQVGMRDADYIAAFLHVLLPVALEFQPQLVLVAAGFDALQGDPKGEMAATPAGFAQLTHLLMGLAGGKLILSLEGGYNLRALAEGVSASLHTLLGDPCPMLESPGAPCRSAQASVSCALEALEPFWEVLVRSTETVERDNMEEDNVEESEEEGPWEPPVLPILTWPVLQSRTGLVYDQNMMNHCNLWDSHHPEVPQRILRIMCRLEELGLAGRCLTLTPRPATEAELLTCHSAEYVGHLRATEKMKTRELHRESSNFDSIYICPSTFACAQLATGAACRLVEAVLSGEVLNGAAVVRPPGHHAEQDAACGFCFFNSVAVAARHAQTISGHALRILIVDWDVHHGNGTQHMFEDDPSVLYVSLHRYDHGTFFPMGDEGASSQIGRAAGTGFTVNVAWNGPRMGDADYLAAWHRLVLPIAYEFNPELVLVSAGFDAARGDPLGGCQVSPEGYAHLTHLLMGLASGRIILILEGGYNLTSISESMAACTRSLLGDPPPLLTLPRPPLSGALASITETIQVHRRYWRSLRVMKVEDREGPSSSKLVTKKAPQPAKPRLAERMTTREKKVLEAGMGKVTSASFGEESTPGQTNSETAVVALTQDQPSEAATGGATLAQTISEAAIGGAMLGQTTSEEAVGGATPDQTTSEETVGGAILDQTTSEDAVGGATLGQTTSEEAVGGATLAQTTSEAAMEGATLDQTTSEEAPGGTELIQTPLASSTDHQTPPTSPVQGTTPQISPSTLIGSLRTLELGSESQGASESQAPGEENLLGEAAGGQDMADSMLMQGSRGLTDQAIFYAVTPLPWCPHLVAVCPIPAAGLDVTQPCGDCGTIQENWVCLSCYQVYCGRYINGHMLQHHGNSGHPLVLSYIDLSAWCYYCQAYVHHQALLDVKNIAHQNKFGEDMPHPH
The data set can be described thus: Inhibition of recombinant human full length N-terminal GST-tagged HDAC6 expressed in Sf9 cells using fluorogenic substrate measured after 60 mins by FRET assay.

A short description of data set [7]: Biodistribution in kidney of athymic nude mouse xenografted with human MDA-MB-231 cells assessed as fluorescence intensity at 3 nmol, iv measured 48 hrs post infection by epifluorescence analysis. It is filed as ADME, organism-based. The note with it: in vivo.
Data set [8] is described as follows: Drug uptake in triple negative human MDA-MB-231 cells overexpressing class 1 HDACs at 1.5 uM in presence of (12Z,7S,10S)-7- (4-Aminobutyl)-4-ethylidene-10-((E)-4-(heptyldisulfaneyl)but-1-en-1-yl)-9-oxa-3,6,13-triaza-1(4,2)-thiazolacyclotetradecaphane-2,5,8,12-tetraone measured after 60 mins by DAPI staining based confocal microscopic analysis. The note with it: mda-mb-231, 1 h. It is filed as ADME, cell-based.

For the next data set, the species on record is Homo sapiens. The data set can be described thus: Selectivity index, ratio of IC50 for inhibition of recombinant HDAC in human HeLa nuclear extracts to IC50 for inhibition of recombinant human C-terminal FLAG/His-tagged HDAC1 (1 to 482 residues) expressed in Sf9 insect cells.
Another data set addresses Histone deacetylase. Nature of the data set: Inhibition of recombinant HDAC in human HeLa nuclear extracts using fluorogenic substrate measured after 60 mins by FRET assay.
Data set [9] can be described thus: Drug uptake in tumor of athymic nude mouse xenografted with human MDA-MB-231 cells at 3 nmol, iv measured 4 hrs post infection by epifluorescence analysis. It is filed as ADME, organism-based, Neoplasm. The following applies: in vivo.
The nature of data set [10]: Drug distribution in triple negative human MDA-MB-231 cells expressing class 1 HDACs assessed as accumulation in nucleus by measuring colocalization of Cy5.5 signal measured for 60 mins by DAPI staining based confocal microscopic analysis. The format is ADME, cell-based. The note with it: mda-mb-231, 1 h.
Data set [11] is described as follows: Drug distribution in NOD-SCID mouse lung xenografted with triple negative MDA-MB-231 cells at 3 nmol, iv measured 24 hrs post infection by NRI fluorescence imaging analysis. It is filed as ADME, organism-based. The following applies: in vivo.
The target of the next data set is Histone deacetylase 1 (Homo sapiens, UniProt Q13547). The data set can be described thus: Inhibition of recombinant human C-terminal FLAG/His-tagged HDAC1 (1 to 482 residues) expressed in Sf9 insect cells using fluorometric substrate measured after 60 mins by FRET assay.
Chain of Histone deacetylase 1 (Q13547 whole entry, the tested form may be a part): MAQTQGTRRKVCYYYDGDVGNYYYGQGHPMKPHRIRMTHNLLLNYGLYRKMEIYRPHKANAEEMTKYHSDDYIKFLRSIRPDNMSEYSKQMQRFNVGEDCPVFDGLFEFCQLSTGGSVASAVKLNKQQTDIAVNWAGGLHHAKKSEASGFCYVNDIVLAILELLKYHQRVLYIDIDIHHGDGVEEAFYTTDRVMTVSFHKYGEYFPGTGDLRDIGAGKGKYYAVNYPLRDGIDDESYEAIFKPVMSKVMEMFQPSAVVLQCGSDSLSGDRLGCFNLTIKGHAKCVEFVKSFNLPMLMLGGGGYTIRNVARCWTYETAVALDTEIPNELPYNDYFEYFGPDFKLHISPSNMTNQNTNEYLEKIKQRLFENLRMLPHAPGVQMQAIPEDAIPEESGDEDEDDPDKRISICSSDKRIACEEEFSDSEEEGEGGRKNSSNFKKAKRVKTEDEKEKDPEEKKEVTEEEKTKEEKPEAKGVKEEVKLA
The nature of data set [12]: Drug distribution in NOD-SCID mouse lung xenografted with triple negative MDA-MB-231 cells assessed as accumulation in metastatic lungs by measuring increase in fluorescence intensity at 3 nmol, iv measured 24 hrs post infection by NRI fluorescence imaging analysis (Rvb= 2.2+/- 0.5 10^9/s/cm2). It is filed as ADME, organism-based. The note with it: in vivo.
Data set [13] is described as follows: Biodistribution in tumor of athymic nude mouse xenografted with human MDA-MB-231 cells assessed as fluorescence intensity at 3 nmol, iv pretreated with (12Z,7S,10S)-7- (4-Aminobutyl)-4-ethylidene-10-((E)-4-(heptyldisulfaneyl)but-1-en-1-yl)-9-oxa-3,6,13-triaza-1(4,2)-thiazolacyclotetradecaphane-2,5,8,12-tetraone followed by compound addition and measured after 48 hrs by epifluorescence analysis. The format is ADME, organism-based, Neoplasm. The note with it: in vivo.

Another data set addresses T2, Histone deacetylase 8 (Homo sapiens, UniProt Q9BY41).
T2 sequence (Q9BY41 whole entry): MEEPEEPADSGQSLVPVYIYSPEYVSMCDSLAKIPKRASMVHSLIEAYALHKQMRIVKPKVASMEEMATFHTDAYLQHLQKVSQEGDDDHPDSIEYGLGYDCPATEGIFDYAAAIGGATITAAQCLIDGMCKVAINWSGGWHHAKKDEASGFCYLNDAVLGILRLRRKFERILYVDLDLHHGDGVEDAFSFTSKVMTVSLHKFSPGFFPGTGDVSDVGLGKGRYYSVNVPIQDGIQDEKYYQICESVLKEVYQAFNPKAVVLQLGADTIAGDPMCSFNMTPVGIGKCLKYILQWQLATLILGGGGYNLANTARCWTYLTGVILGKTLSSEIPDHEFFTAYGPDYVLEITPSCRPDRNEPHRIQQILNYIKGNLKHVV
Nature of the data set: Inhibition of recombinant human full length C-terminal His-tagged HDAC8 expressed in baculovirus infected Sf9 insect cells using fluorometric substrate measured after 60 mins by FRET assay.

Data set [14] can be described thus: Cytotoxicity against human WI-38 cells assessed as cell growth inhibition incubated for 72 hrs by CCK8 assay. The format is cell-based. A general note: Tetrazolium assays rely on reduction of a dye to a coloured formazan, in cell work by metabolically active cells.
The target of data set [15] is T3, Polyamine deacetylase HDAC10 (Homo sapiens, UniProt Q969S8).
T3 sequence (Q969S8 whole entry): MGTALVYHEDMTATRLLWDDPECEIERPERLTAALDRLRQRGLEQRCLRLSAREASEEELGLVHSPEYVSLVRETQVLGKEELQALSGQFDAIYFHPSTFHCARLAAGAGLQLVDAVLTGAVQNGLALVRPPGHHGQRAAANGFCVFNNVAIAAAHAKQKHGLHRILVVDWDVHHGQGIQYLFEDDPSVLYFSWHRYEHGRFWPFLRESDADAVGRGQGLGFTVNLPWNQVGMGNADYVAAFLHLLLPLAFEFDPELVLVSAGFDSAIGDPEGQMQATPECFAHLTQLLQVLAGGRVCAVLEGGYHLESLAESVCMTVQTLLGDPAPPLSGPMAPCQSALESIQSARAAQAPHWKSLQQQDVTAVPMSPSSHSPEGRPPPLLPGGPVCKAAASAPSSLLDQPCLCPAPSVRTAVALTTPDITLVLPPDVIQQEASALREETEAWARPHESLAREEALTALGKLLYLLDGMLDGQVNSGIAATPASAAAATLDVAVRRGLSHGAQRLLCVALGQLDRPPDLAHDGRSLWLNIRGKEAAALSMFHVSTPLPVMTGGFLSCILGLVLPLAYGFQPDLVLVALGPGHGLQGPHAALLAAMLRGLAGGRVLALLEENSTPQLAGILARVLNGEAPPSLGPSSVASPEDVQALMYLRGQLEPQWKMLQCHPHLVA
The data set can be described thus: Inhibition of recombinant human N-terminal FLAG tagged HDAC10 (2 to 631 residues) expressed in baculovirus infected Sf9 insect cells using fluorogenic substrate measured after 60 mins by FRET assay.

The target of the next data set is Histone deacetylase 2 (Homo sapiens, UniProt Q92769). The data set can be described thus: biochemical. It is filed as cell-based, Sf9.
Chain of Histone deacetylase 2 (Q92769 whole entry): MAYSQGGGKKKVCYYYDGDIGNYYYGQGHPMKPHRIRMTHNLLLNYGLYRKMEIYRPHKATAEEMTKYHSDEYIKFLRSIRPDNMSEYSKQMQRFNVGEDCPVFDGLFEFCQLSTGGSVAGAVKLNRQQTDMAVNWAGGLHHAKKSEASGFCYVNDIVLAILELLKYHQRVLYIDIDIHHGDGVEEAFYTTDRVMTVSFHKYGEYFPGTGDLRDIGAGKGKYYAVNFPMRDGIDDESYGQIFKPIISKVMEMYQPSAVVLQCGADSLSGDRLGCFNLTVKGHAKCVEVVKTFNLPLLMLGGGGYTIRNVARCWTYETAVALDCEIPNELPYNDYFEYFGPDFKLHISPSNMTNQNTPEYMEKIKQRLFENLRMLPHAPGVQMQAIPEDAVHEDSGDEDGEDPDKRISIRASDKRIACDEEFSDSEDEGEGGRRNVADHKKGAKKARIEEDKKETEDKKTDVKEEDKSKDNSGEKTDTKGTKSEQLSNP
The nature of data set [16]: Selectivity index, ratio of GI50 for cytotoxicity against human WI-38 cells to GI50 for antiproliferative activity against triple-negative human MDA-MB-231 cells. The following applies: WI-38 cells versus MDA-MB-231 cells, read-out: RatioGI50. The format is toxicity, cell-based.
In data set [17] the target is Histone deacetylase 3/Nuclear receptor corepressor 2 (HDAC3/NCoR2) (Homo sapiens, UniProt O15379). Nature of the data set: Inhibition of C-terminal His-tagged recombinant human HDAC3 (1 to 428 residues)/N-terminal GST-tagged recombinant human NCoR2 (395 to 489 residues) co-expressed in baculovirus infected Sf9 cells using fluorometric substrate measured after 60 mins by FRET assay.
Chain of Histone deacetylase 3/Nuclear receptor corepressor 2 (HDAC3/NCoR2) (O15379 whole entry, the tested form may be a part): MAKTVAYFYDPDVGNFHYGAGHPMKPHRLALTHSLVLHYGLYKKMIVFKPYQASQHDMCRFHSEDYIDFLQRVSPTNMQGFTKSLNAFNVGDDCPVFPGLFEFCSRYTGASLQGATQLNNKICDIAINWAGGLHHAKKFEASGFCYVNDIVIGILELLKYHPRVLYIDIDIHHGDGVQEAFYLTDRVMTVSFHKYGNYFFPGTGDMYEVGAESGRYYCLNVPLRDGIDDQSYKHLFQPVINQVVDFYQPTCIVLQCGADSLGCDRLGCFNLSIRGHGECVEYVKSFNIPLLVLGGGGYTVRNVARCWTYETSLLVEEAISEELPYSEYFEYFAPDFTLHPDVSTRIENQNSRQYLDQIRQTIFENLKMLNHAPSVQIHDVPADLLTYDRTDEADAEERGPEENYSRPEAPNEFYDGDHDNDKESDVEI
Chain of Histone deacetylase 3/Nuclear receptor corepressor 2 (HDAC3/NCoR2) (Q9Y618 whole entry, further chain, the tested form may be a part): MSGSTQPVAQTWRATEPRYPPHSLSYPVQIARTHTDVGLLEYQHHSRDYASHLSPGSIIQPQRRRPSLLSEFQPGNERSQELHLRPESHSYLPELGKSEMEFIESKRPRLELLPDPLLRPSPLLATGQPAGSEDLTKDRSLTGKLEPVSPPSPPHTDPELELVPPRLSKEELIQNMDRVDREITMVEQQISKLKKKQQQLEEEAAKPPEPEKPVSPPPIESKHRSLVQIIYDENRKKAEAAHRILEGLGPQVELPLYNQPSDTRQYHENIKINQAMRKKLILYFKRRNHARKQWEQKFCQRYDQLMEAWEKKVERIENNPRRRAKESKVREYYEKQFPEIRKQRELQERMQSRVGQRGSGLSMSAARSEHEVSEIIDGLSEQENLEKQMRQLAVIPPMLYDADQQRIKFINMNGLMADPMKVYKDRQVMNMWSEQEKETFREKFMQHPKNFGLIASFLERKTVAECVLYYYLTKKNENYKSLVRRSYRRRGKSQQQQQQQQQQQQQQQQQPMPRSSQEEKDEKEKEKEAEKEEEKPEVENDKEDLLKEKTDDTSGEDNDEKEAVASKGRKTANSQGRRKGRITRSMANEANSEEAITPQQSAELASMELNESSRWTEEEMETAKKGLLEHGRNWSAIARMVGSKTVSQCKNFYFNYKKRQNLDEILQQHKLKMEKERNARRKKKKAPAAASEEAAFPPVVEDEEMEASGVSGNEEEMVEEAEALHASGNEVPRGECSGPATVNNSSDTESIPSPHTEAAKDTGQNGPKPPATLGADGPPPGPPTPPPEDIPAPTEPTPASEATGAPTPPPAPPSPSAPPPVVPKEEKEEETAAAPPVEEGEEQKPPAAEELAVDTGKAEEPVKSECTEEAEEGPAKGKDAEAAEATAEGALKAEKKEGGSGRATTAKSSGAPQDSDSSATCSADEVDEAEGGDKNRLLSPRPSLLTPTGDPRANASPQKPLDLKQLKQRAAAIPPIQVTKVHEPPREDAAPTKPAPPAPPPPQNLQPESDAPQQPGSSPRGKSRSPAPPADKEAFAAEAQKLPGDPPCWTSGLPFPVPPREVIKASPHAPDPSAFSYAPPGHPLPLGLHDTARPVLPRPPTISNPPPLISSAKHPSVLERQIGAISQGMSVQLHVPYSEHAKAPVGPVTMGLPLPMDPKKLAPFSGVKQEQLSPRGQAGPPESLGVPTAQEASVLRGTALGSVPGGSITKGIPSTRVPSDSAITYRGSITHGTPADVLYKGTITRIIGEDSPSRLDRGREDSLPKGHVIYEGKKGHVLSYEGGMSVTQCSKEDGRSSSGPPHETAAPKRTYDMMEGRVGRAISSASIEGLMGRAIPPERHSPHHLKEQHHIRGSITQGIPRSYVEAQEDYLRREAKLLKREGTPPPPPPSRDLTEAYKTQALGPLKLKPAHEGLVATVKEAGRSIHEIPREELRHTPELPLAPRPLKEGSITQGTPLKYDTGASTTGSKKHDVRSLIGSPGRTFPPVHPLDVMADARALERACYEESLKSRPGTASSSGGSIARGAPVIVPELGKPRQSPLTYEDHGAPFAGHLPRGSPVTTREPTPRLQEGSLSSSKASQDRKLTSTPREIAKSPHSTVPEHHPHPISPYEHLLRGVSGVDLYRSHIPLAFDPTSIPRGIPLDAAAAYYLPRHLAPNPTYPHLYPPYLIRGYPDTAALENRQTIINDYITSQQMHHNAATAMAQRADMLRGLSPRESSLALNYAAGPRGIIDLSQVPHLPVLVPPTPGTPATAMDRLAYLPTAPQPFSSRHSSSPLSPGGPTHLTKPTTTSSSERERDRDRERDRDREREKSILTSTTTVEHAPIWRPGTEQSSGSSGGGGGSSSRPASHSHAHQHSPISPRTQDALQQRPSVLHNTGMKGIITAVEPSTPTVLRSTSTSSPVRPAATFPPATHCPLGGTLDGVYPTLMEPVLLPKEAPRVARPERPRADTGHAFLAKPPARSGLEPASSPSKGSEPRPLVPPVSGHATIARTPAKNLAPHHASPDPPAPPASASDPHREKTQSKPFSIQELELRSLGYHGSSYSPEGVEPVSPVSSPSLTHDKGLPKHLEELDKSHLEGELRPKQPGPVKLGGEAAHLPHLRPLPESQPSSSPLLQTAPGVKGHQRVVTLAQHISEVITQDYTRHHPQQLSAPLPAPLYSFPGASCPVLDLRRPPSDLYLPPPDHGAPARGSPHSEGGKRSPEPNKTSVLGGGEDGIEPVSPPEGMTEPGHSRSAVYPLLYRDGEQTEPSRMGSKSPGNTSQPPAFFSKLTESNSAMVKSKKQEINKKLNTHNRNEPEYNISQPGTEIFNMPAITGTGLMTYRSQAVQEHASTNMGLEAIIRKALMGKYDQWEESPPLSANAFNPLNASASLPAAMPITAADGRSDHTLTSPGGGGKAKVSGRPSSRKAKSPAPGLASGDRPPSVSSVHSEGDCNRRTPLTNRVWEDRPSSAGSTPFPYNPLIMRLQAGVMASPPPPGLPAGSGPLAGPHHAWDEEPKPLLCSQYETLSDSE

The subject of a further data set is MDA-MB-231. The data set can be described thus: Antiproliferative activity against triple-negative human MDA-MB-231 cells assessed as cell growth inhibition incubated for 72 hrs by CCK8 assay. The format is functional.

Description for Histone deacetylase 2: Inhibition of recombinant human full length C-terminal His- tagged HDAC2 (1 to 488 residues) expressed in Sf9 insect cells using fluorometric substrate measured after 60 mins by FRET assay

As for `C/C=C1\NC(=O)c2csc(n2)CNC(=O)C[C@@H](/C=C/CCSSCCCCCCC)OC(=O)[C@H](CCCCNC(=O)CCCCC[N+]2=C(/C=C/C=C/C=C3/N(CC)c4ccc5c(S(=O)(=O)O)cc(S(=O)(=O)O)cc5c4C3(C)C)C(C)(C)c3c2ccc2c(S(=O)(=O)[O-])cc(S(=O)(=O)O)cc32)NC1=O`, the Drug uptake result is listed as “Not Active” in [1]; “Not Active” in [2]; 70% in data set [4]; “Not Active” in data set [8]; “Active” in data set [9]; “Active” in data set [10]. Further, in data set [11], the Drug uptake entry is recorded as “Active”. Also, the Flu intensity in data set [3] is on record as 1.33 10^9/s/cm2; in data set [5], 3.13 10^9/s/cm2; in data set [7] it was 3.06 10^9/s/cm2; in [12], 8 10^9/s/cm2; in data set [13] it was 1.95 10^9/s/cm2. Besides, the values for the IC50 (in [6]; at Histone deacetylase; at Histone deacetylase 1) were 70 nM, 824 nM and 8 nM, respectively. For the same compound, the Ratio IC50 in the data set listed under Homo sapiens worked out at 100.
Consider `C/C=C1\NC(=O)c2csc(n2)CNC(=O)C[C@@H](/C=C/CCSC(=O)CCCCCCC)OC(=O)[C@H](C(C)C)NC1=O`, for which the IC50 on Histone deacetylase 8 was 3960 nM; in data set [6], 1810 nM; in [15], 37 nM; at Histone deacetylase 2 it was 5.3 nM; in data set [17] it was 8.9 nM; on Histone deacetylase 1 it was 3.1 nM. The GI50 at 72 h in [14] came to 363 nM. In addition, the selectivity ratio in data set [16] stood at 32. Also, the GI50 in the data set on MDA-MB-231 amounted to 11.3 nM.
For the compound `C/C=C1\NC(=O)[C@H]2CSSCC/C=C/[C@H](CC(=O)N[C@H](C(C)C)C(=O)N2)OC(=O)[C@H](C(C)C)NC1=O` [ROMIDEPSIN], the GI50 at 72 h in data set [14] turned out to be 30.1 nM. In [16], the selectivity ratio is 3.1.
